Test results as given in PubChem BioAssay (NCI).
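Here, GI50 denotes the concentration required for 50% inhibition of growth. The concentration for full growth arrest is given as TGI.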

Experiments:
Assay in all cases: NCI anticancer screen, dose series, 384-well format
786-0 renal = tested on: 786-0 renal
A498 renal = tested on: A498 renal
A549 NSCLC = tested on: A549 NSCLC
ACHN renal = tested on: ACHN renal
BT-549 breast = tested on: BT-549 breast
CAKI-1 renal = tested on: CAKI-1 renal
CCRF-CEM leukemia = tested on: CCRF-CEM leukemia
COLO 205 colon = tested on: COLO 205 colon
DU-145 prostate = tested on: DU-145 prostate
EKVX NSCLC = tested on: EKVX NSCLC
HCC-2998 colon = tested on: HCC-2998 colon
HCT-116 colon = tested on: HCT-116 colon
HCT-15 colon = tested on: HCT-15 colon
HL-60(TB) leukemia = tested on: HL-60(TB) leukemia
HOP-62 NSCLC = tested on: HOP-62 NSCLC
HOP-92 NSCLC = tested on: HOP-92 NSCLC
HS 578T breast = tested on: HS 578T breast
HT29 colon = tested on: HT29 colon
IGROV1 ovarian = tested on: IGROV1 ovarian
K-562 leukemia = tested on: K-562 leukemia
KM12 colon = tested on: KM12 colon
LOX IMVI melanoma = tested on: LOX IMVI melanoma
M14 melanoma = tested on: M14 melanoma
MALME-3M melanoma = tested on: MALME-3M melanoma
MCF7 breast = tested on: MCF7 breast
MDA-MB-231 breast = tested on: MDA-MB-231 breast
MDA-MB-435 melanoma = tested on: MDA-MB-435 melanoma
MDA-MB-468 breast = tested on: MDA-MB-468 breast
MOLT-4 leukemia = tested on: MOLT-4 leukemia
NCI-H226 lung = tested on: NCI-H226 lung
NCI-H23 lung = tested on: NCI-H23 lung
NCI-H322M lung = tested on: NCI-H322M lung
NCI-H460 NSCLC = tested on: NCI-H460 NSCLC
NCI-H522 lung = tested on: NCI-H522 lung
NCI/ADR-RES ovarian = tested on: NCI/ADR-RES ovarian
OVCAR-3 ovarian = tested on: OVCAR-3 ovarian
OVCAR-4 ovarian = tested on: OVCAR-4 ovarian
OVCAR-5 ovarian = tested on: OVCAR-5 ovarian
OVCAR-8 ovarian = tested on: OVCAR-8 ovarian
PC-3 prostate = tested on: PC-3 prostate
RPMI-8226 leukemia = tested on: RPMI-8226 leukemia
RXF 393 renal = tested on: RXF 393 renal
SF-268 CNS = tested on: SF-268 CNS
SF-295 CNS = tested on: SF-295 CNS
SF-539 CNS = tested on: SF-539 CNS
SK-MEL-28 melanoma = tested on: SK-MEL-28 melanoma
SK-MEL-5 melanoma = tested on: SK-MEL-5 melanoma
SK-OV-3 ovarian = tested on: SK-OV-3 ovarian
SN12C renal = tested on: SN12C renal
SNB-19 CNS = tested on: SNB-19 CNS
SNB-75 CNS = tested on: SNB-75 CNS
SW-620 colon = tested on: SW-620 colon
T-47D breast = tested on: T-47D breast
TK-10 renal = tested on: TK-10 renal
U251 glioblastoma = tested on: U251 glioblastoma
UACC-257 melanoma = tested on: UACC-257 melanoma
UACC-62 melanoma = tested on: UACC-62 melanoma
UO-31 renal = tested on: UO-31 renal

Compound: C[C@H]1COCCN1c1cc(C2(S(=O)(=O)C3CC3)CC2)nc(-c2ccc(NC(=S)NCCO)cc2)n1
- GI50 ([…]-0 renal): 50.8 nM
- TGI (786-0 renal): 12600 nM
- GI50 (A498 renal): < 10 nM
- TGI (A498 renal): 53.1 nM
- GI50 (A549 NSCLC): 28.9 nM
- TGI (A549 NSCLC): 1410 nM
- GI50 (ACHN renal): 55.1 nM
- TGI (ACHN renal): 11800 nM
- GI50 (BT-549 breast): 16 nM
- TGI (BT-549 breast): 121 nM
- GI50 (CAKI-1 renal): 17.8 nM
- TGI (CAKI-1 renal): 214 nM
- GI50 (CCRF-CEM leukemia): 20.6 nM
- TGI (CCRF-CEM leukemia): 1630 nM
- GI50 (COLO 205 colon): 19.6 nM
- TGI (COLO 205 colon): 3340 nM
- GI50 (DU-145 prostate): 59.1 nM
- TGI (DU-145 prostate): 18800 nM
- GI50 (EKVX NSCLC): 40.2 nM
- TGI (EKVX NSCLC): 1570 nM
- GI50 (HCC-2998 colon): 98.6 nM
- TGI (HCC-2998 colon): 18600 nM
- GI50 (HCT-116 colon): 119 nM
- TGI (HCT-116 colon): 16500 nM
- GI50 (HCT-15 colon): 126 nM
- TGI (HCT-15 colon): 86300 nM
- GI50 (HL-60(TB) leukemia): 618 nM
- TGI (HL-60(TB) leukemia): 15200 nM
- GI50 (HOP-62 NSCLC): 39.1 nM
- TGI (HOP-62 NSCLC): 540 nM
- GI50 (HOP-92 NSCLC): 25.7 nM
- TGI (HOP-92 NSCLC): 601 nM
- GI50 (HS 578T breast): < 10 nM
- TGI (HS 578T breast): 35.5 nM
- GI50 (HT29 colon): 79.3 nM
- TGI (HT29 colon): 15800 nM
- GI50 (IGROV1 ovarian): < 10 nM
- TGI (IGROV1 ovarian): 41.9 nM
- GI50 (K-562 leukemia): 41.6 nM
- TGI (K-562 leukemia): 16100 nM
- GI50 (KM12 colon): 27.8 nM
- TGI (KM12 colon): 17600 nM
- GI50 (LOX IMVI melanoma): 27.6 nM
- TGI (LOX IMVI melanoma): 640 nM
- GI50 (M14 melanoma): 20.7 nM
- TGI (M14 melanoma): 1830 nM
- GI50 (MALME-3M melanoma): < 10 nM
- TGI (MALME-3M melanoma): 84.3 nM
- GI50 (MCF7 breast): < 10 nM
- TGI (MCF7 breast): 5510 nM
- GI50 (MDA-MB-231 breast): 34.2 nM
- TGI (MDA-MB-231 breast): > 100000 nM
- GI50 (MDA-MB-435 melanoma): 41.5 nM
- TGI (MDA-MB-435 melanoma): 3460 nM
- GI50 (MDA-MB-468 breast): < 10 nM
- TGI (MDA-MB-468 breast): 31.9 nM
- GI50 (MOLT-4 leukemia): < 10 nM
- TGI (MOLT-4 leukemia): 1070 nM
- GI50 (NCI-H226 lung): 19.1 nM
- TGI (NCI-H226 lung): 101 nM
- GI50 (NCI-H23 lung): 83.1 nM
- TGI (NCI-H23 lung): 12500 nM
- GI50 (NCI-H322M lung): 27.4 nM
- TGI (NCI-H322M lung): 15500 nM
- GI50 (NCI-H460 NSCLC): < 10 nM
- TGI (NCI-H460 NSCLC): 11500 nM
- GI50 (NCI-H522 lung): < 10 nM
- TGI (NCI-H522 lung): 6640 nM
- GI50 (NCI/ADR-RES ovarian): 6720 nM
- TGI (NCI/ADR-RES ovarian): > 100000 nM
- GI50 (OVCAR-3 ovarian): 38 nM
- TGI (OVCAR-3 ovarian): 6600 nM
- GI50 (OVCAR-4 ovarian): 31.8 nM
- TGI (OVCAR-4 ovarian): 340 nM
- GI50 (OVCAR-5 ovarian): 51.8 nM
- TGI (OVCAR-5 ovarian): 7110 nM
- GI50 (OVCAR-8 ovarian): 53.4 nM
- TGI (OVCAR-8 ovarian): 12700 nM
- GI50 (PC-3 prostate): 16.7 nM
- TGI (PC-3 prostate): 4390 nM
- GI50 (RPMI-8226 leukemia): 12 nM
- TGI (RPMI-8226 leukemia): 85.3 nM
- GI50 (RXF 393 renal): 25.9 nM
- TGI (RXF 393 renal): 310 nM
- GI50 (SF-268 CNS): < 10 nM
- TGI (SF-268 CNS): 28.9 nM
- GI50 (SF-295 CNS): 34.4 nM
- TGI (SF-295 CNS): 335 nM
- GI50 (SF-539 CNS): 29.7 nM
- TGI (SF-539 CNS): 598 nM
- GI50 (SK-MEL-28 melanoma): 26.2 nM
- TGI (SK-MEL-28 melanoma): 564 nM
- GI50 (SK-MEL-5 melanoma): 11.8 nM
- TGI (SK-MEL-5 melanoma): 58.5 nM
- GI50 (SK-OV-3 ovarian): 20.1 nM
- TGI (SK-OV-3 ovarian): 626 nM
- GI50 (SN12C renal): 18.4 nM
- TGI (SN12C renal): 12200 nM
- GI50 (SNB-19 CNS): 100 nM
- TGI (SNB-19 CNS): 50200 nM
- GI50 (SNB-75 CNS): < 10 nM
- TGI (SNB-75 CNS): 50.5 nM
- GI50 (SW-620 colon): 130 nM
- TGI (SW-620 colon): 17800 nM
- GI50 (T-47D breast): < 10 nM
- TGI (T-47D breast): 17.9 nM
- GI50 (TK-10 renal): 92.6 nM
- TGI (TK-10 renal): 900 nM
- GI50 (U251 glioblastoma): 57.2 nM
- TGI (U251 glioblastoma): 14900 nM
- GI50 (UACC-257 melanoma): 46.3 nM
- TGI (UACC-257 melanoma): 827 nM
- GI50 (UACC-62 melanoma): 15 nM
- TGI (UACC-62 melanoma): 100 nM
- GI50 (UO-31 renal): 121 nM
- TGI (UO-31 renal): 14000 nM
